The source of these data is patent US8680139B2 (Progenra, priority 2009, dated 2014).

Series [1] is described as follows: HCT-116 Cellular Cytotoxicity Assay. The note with it: human, HCT-116 cells, pH 7.2.
Procedure: (§3) The purpose of this assay is to determine if any of the synthesized compounds are cytotoxic against HCT-116 cells, as measured by resazurin metabolism. Resazurin is metabolized only by living cells from a non-fluorescent molecule into Resorufin, a highly red fluorescent dye. […] The cells were cultured in an incubator at 37° C. in 5% CO2 and 95% humidified air. […] The final concentration DMSO was 0.5% (v/v) in all samples. The plates were returned to the incubator for 72 hours. Following 72 hours of test compound exposure, 10 μL of 0.2 mg/mL Resazurin (Sigma) in phosphate buffered saline was added to each well and the plate was returned to the incubator for 3-6 hours. Since living cells metabolize Resazurin, the fluorescence of the reduction product of Resazurin was measured using a microplate fluorometer with λex=531 nm and λem=590 nm filters. Resazurin dye in medium without cells was used to determine the background, which was subtracted from the data for all experimental wells.
Series [2] has as its system HCT-116 cells. Briefly: HCT-116 Combination Cytotoxicity Assay. The settings on record: constant ratio, 72 hours. The class given is cell-based, human.
The target of series [3] is T1, USP7 (Homo sapiens, UniProt Q93009).
T1 construct: full length human USP7 protein; made in house
T1 sequence (Q93009 whole entry): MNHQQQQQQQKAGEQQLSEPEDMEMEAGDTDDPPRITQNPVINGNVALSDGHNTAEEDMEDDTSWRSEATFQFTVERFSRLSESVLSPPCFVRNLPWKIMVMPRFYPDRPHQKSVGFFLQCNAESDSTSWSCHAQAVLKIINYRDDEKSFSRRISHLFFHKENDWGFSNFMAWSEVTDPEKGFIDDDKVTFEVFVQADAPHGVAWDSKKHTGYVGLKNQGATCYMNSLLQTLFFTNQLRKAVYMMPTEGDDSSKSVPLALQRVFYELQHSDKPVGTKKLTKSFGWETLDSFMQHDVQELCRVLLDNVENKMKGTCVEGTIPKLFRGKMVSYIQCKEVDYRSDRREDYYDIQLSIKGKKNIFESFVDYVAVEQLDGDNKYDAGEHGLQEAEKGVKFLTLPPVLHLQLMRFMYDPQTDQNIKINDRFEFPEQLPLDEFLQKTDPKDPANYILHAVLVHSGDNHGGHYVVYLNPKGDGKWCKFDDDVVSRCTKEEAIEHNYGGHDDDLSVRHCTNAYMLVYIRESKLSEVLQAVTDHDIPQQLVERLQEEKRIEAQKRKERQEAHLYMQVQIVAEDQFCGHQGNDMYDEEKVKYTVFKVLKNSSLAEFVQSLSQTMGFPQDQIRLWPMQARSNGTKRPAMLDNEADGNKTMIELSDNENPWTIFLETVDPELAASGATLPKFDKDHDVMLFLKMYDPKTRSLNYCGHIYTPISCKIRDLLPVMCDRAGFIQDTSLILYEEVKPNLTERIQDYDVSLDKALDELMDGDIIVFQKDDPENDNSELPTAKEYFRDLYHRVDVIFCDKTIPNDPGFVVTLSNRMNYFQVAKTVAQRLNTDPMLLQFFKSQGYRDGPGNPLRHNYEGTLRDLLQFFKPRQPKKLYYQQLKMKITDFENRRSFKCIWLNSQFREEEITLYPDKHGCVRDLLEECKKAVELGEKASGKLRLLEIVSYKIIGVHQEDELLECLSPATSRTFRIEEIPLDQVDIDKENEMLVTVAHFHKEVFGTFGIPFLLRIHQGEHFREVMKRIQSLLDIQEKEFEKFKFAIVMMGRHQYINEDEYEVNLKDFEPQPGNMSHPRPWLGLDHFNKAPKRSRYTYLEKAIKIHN
Briefly: USP7, Ub-PLA2 assay. The series is classed as biochemical. The settings on record: Ub-PLA2 / NBD C6-HPC fluorescence, 30 minute preincubation; read-out: EC50 for inhibition of USP7. Put shortly: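 Activity read as fluorescence in a Ub-PLA2 format, with percent inhibition calculated within each plate against DMSO (uninhibited) and NEM (background) wells. Vehicle was 100% DMSO.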

The subject of series [4] is A549/ATCC. Briefly: NCI-60 Human Tumor Cell Line Growth Inhibition Screen. The settings on record: Non-Small Cell Lung Cancer, 48 hours, SRB. The class given is cell-based. As to the method:
(§1) Various human tumor cell lines representing the NCI-60 cancer screening panel were grown in RPMI 1640 medium containing 5% fetal bovine serum and 2 mM L-glutamine. For a typical screening experiment, cells were inoculated into 96 well microtiter plates in 100 μL at plating densities ranging from 5,000 to 40,000 cells/well depending on the doubling time of individual cell lines. After cell inoculation, the microtiter plates were incubated at 37° C., 5% CO2, 95% air and 100% relative humidity for 24 hours prior to addition of the test compound. After 24 hours, two plates of each cell line were fixed in situ with TCA, to represent a measurement of the cell population for each cell line at the time of test compound addition (Tz). Experimental test compounds were solubilized in 100% (v/v) DMSO at 400-fold the desired final maximum test concentration and stored frozen prior to use. At the time of test compound addition, an aliquot of frozen concentrate was thawed and diluted to twice the desired final maximum test concentration with complete medium containing 50 μg/ml gentamicin. Additional four, 10-fold or ½ log serial dilutions were made to provide a total of five test compound concentrations plus control. Aliquots of 100 μl of these different test compound dilutions were added to the appropriate microtiter wells already containing 100 μl of medium, resulting in the required final test compound concentrations.
(§2) Following test compound addition, the plates were incubated for an additional 48 hours at 37° C., 5% CO2, 95% air, and 100% relative humidity. For adherent cells, the assay was terminated by the addition of cold TCA. Cells were fixed in situ by the gentle addition of 50 μl of cold 50% (w/v) TCA and incubated for 60 minutes at 4° C. The supernatant was discarded, and the plates were washed five times with tap water and air dried. Sulforhodamine B (SRB) solution (100 μl) at 0.4% (w/v) in 1% acetic acid was added to each well, and plates were incubated for 10 minutes at room temperature. After staining, unbound dye was removed by washing five times with 1% acetic acid and the plates were air dried. Bound stain was subsequently solubilized with 10 mM trizma base, and the absorbance was read on an automated plate reader at a wavelength of 515 nm. For suspension cells, the methodology was the same except that the assay was terminated by fixing settled cells at the bottom of the wells by gently adding 50 μl of 80% TCA. Using the seven absorbance measurements [time zero, (Tz), control growth, (C), and test growth in the presence of test compound at the five concentration levels (Ti)], the percentage growth was calculated at each of the test compound concentrations levels. Percentage growth inhibition was calculated as: [(Ti−Tz)/(C−Tz)]×100 for concentrations for which Ti≧Tz or [(Ti−Tz)/Tz]×100 for concentrations for which Ti<Tz. Growth inhibition of 50% (GI50) was calculated from [(Ti−Tz)/(C−Tz)]×100=50, which is the test compound concentration resulting in a 50% reduction in the net protein increase (as measured by SRB staining) in control cells during the test compound incubation.

Series [5] deals with LOX IMVI. The series is described as above. The series is classed as cell-based. The settings on record: Melanoma, 48 hours, SRB. As to the method: as §1, §2
Series [6] deals with MCF7. The series is described as above. The settings on record: MCF7, Breast Cancer, 48 hours, SRB. The class given is cell-based. As to the method:
as §1, §2

Series [7] has as its system OVCAR-3. The series is described as above. The series is classed as cell-based. The note with it: OVCAR-3, Ovarian Cancer, 48 hours, SRB. As to the method: as §1, §2
Series [8] relates to HT29. Described as above. The series is classed as cell-based. The settings on record: HT-29, HT29, Colon Cancer, 48 hours, SRB. As to the method:
as §1, §2

Series [9] concerns CAKI-1. Described as above. The class given is cell-based. The note with it: CAKI-1, Renal Cancer, 48 hours, SRB. As to the method:
as §1, §2

The subject of series [10] is PC-3. Described as above. The class given is cell-based. The note with it: PC-3, Prostate Cancer, 48 hours, SRB. As to the method:
as §1, §2

Series [11] relates to U251. Described as above. The series is classed as cell-based. The note with it: U-251, U251, CNS Cancer, 48 hours, SRB. As to the method: as §1, §2
Series [12] deals with HL-60(TB). The series is described as above. The settings on record: Leukemia, 48 hours, SRB. The series is classed as cell-based. As to the method: as §1, §2
Series [13] deals with human multiple myeloma tumor cells. Briefly: In vivo Efficacy of P5091. The settings on record: SCID mice, 10 mg/kg intravenously twice a week for three weeks. As to the method:
Severe combined immunodeficient mice inoculated subcutaneously with human multiple myeloma tumor cells were treated intravenously twice a week for three weeks with 10 mg/kg P5091. […] See D. Chauhan et al., Abstract No. 610 (Deubiquitylating Enzyme USP-7, a Novel Therapeutic Target in Multiple Myeloma), 51st ASH Annual Meeting and Exposition, New Orelans, La., December 2009.

In series [14] the test system is HCT-116 cells.
Procedure: as §3

Some results are limits rather than exact numbers.

For `CN1CCC(NC(=O)c2cc([N+](=O)[O-])c(Sc3c(Cl)cncc3Cl)s2)CC1` [Example 168, 5-((3,5-dichloropyridin-4-yl)thio)-N-(1-methylpiperidin-4-yl)-4-nitrothiophene-2-carboxamide], the midpoint of the response in series [1], the EC50 at 72 h, lay at 6520 nM. In addition, the “CI (mean ± SD) ED75” value in [2] (combination with Chlormethine) is 0.70 ± 0.10; in series [2] (combination with Doxorubicin) it was 0.73 ± 0.09; in series [2] (combination with Etoposide), 0.54 ± 0.10. Also, the “CI (mean ± SD) ED90” value in series [2] (combination with Chlormethine) amounted to 0.78 ± 0.13; in series [2] (combination with Doxorubicin) it was 0.81 ± 0.11; in [2] (combination with Etoposide), 0.59 ± 0.14. Also, the EC50 (in general, the concentration needed to bring the measured effect to its halfway point) in [3] is at most 1000 nM.
On to `CC(=O)c1cc([N+](=O)[O-])c(Sc2cccc(Cl)c2Cl)s1` [Example P5091, 1-[5-(2,3-dichlorophenyl)sulfanyl-4-nitro-2-thienyl]ethanone], for which the concentration for 50% growth inhibition (GI50) (in general, the concentration giving 50% growth inhibition) is 16300 nM in series [4]; 1840 nM in series [5]; 1940 nM in series [6]; 1650 nM in series [7]; 2070 nM in [8]; 2170 nM in series [9]. In addition, the concentration for 50% growth inhibition (GI50) in series [10] came to 1780 nM; in [11], 2330 nM; in series [12] it was 1820 nM. For the same compound, in [1], a half-maximal response (EC50 at 72 h) required 9210 nM. Further, the “CI (mean ± SD) ED75” value in series [2] (combination with Chlormethine) is recorded as 0.67 ± 0.07; in series [2] (combination with Doxorubicin) it was 0.73 ± 0.08; in series [2] (combination with Etoposide) it was 0.54 ± 0.04. The “CI (mean ± SD) ED90” value stood at 0.77 ± 0.05 in series [2] (combination with Chlormethine), 0.81 ± 0.02 in series [2] (combination with Doxorubicin) and 0.63 ± 0.01 in series [2] (combination with Etoposide). Moreover, the human plasmacytoma growth result in [13] is “significantly inhibited human plasmacytoma growth”. For the same compound, in series [13], the survival result is “significantly enhanced survival”.
For the compound `CS(=O)(=O)c1cc([N+](=O)[O-])c(Sc2c(Cl)cncc2Cl)s1` [Example 22, 3,5-dichloro-4-[(5-methylsulfonyl-3-nitro-2-thienyl)sulfanyl]pyridine], the GI50 turned out to be 13800 nM in series [4]; 10000 nM in series [5]; 2040 nM in [6]; 1820 nM in [7]; 2040 nM in [8]; 1820 nM in [9]. Moreover, the GI50 amounted to 3720 nM in [10], 12900 nM in series [11] and 1410 nM in series [12]. Also, the EC50 in series [3] was in the range of 1000 to 10000 nM.
`CS(=O)(=O)c1cc([N+](=O)[O-])c(Sc2ccc(Cl)cc2Cl)s1` [Example 23, 2-(2,4-dichlorophenyl)sulfanyl-5-methylsulfonyl-3-nitro-thiophene]: the GI50 in series [4] stood at 12600 nM; in [5], 1740 nM; in series [6], 1700 nM; in series [7], 1620 nM; in series [8], 1780 nM; in [9], 2240 nM. For the same compound, the figures for the GI50 in series [10], in series [11] and in series [12] were 3980 nM, 6310 nM and 2190 nM, respectively. The EC50 in series [3] was in the range of 1000 to 10000 nM.
For `CC(=O)c1cc([N+](=O)[O-])c(Sc2c(Cl)cncc2Cl)s1` [Example 17, 1-[5-[(3,5-dichloro-4-pyridyl)sulfanyl]-4-nitro-2-thienyl]ethanone], the GI50 worked out at 3090 nM in series [4]; 1510 nM in [5]; 1910 nM in series [6]; 1410 nM in series [7]; 1860 nM in [8]; 1860 nM in series [9]. The GI50 stood at 2750 nM in series [10], 1950 nM in [11] and 1910 nM in series [12]. The same compound had a concentration for a half-maximal effect (EC50) at 72 h in [1] of 8660 nM. In addition, the EC50 in [3] fell in the range of 1000 to 10000 nM.
As for “N-(5-(tert-butyl)isoxazol-3-yl)-5-((3,5-dichloropyridin-4-yl)thio)-4-nitrothiophene-2-carboxamide [Example 201]”, the EC50 in series [14] was determined as 12900 nM.
As for `CC(=O)c1cc([N+](=O)[O-])c(Sc2ccc(F)cc2F)s1` [Example 3, 1-[5-(2,4-Difluorophenylsulfanyl)-4-nitro-2-thienyl]ethanone], the GI50 turned out to be 15500 nM in series [4]; 1510 nM in series [5]; 2570 nM in series [6]; 2040 nM in series [7]; 3800 nM in [8]; 1820 nM in series [9]. Besides, the GI50 worked out at 12000 nM in [10], 4790 nM in series [11] and 2750 nM in series [12].
Compound `CN(C)CCNc1ccc(NC(=O)c2cc([N+](=O)[O-])c(Sc3c(Cl)cncc3Cl)s2)cn1` [Example 238, 5-((3,5-dichloropyridin-4-yl)thio)-N-(6-((2-(dimethylamino)ethyl)amino)pyridin-3-yl)-4-nitrothiophene-2-carboxamide] had an EC50 at 72 h in series [1] of 3960 nM. Also, the EC50 in series [3] is at most 1000 nM.
As for `Cc1cnc(CNC(=O)c2cc([N+](=O)[O-])c(Sc3c(Cl)cncc3Cl)s2)cn1` [Example 103, 5-((3,5-dichloropyridin-4-yl)thio)-N-((5-methylpyrazin-2-yl)methyl)-4-nitrothiophene-2-carboxamide], the response in [1] was half-maximal at 7180 nM (EC50 at 72 h). Also, the EC50 in series [3] is at most 1000 nM.
The matching figures for `CN(C)CCOc1ccc(NC(=O)c2cc([N+](=O)[O-])c(Sc3c(Cl)cncc3Cl)s2)cc1` [Example 192, 5-((3,5-dichloropyridin-4-yl)thio)-N-(4-(2-(dimethylamino)ethoxy)phenyl)-4-nitrothiophene-2-carboxamide]: 4900 nM and at most 1000 nM.
